Read-outs that look alike come from different tables or passages of the source.
Columns and labels:
[1] = Plasma pharmacokinetics after single IV and PO dosing; format: in vivo, female CD1 mice; details: female, CD-1, mouse, plasma; for AUC(0-inf): read-out: AUC(0-inf)
Method: 5. In vivo Pharmacokinetics (PK) Determination: These studies were Performed by Charles River Laboratories (CRL), Discovery Services, 251 Ballardvale Street, Wilmington, MA 01887, USA.
The PK studies were performed according to the guidelines and approval of CRL Institutional Animal Care and Use Committee (IACUC) under IACUC approval no: P04172013.
A total of sixty‐four naïve female CD‐1 mice (including 6 spare animals) were received from Charles River Laboratories, Kingston, NY. Following an acclimation period, the animals were assigned to the study based on acceptable health as determined by a staff veterinarian. For dosing, animals were placed into six groups as detailed in the study design table below. All animals were fasted overnight prior to dosing and food was returned after the 4‐h post‐dose blood collections.
Each animal in Groups 1, 3 and 5 received a single administration of prepared test article by intravenous tail administration at a target dose level of 2 mg/kg and dose volume of 10 mL/kg. Each animal in Groups 2, 4 and 6 received a single administration of prepared test article by oral gavage at a target dose level of 20 mg/kg and at a dose volume of 10 mL/kg. Dosing was performed on August 13, 2015 as detailed in the study protocol and was completed without incident. Dose administration […]
Following dosing and at each sample collection time
Group Mices Test Compound Level Conc. Volume Dose Vehicle Route […]
Interim blood samples were collected in a leapfrog design from each animal by puncture of a submandibular vein and a terminal blood sample was collected from each animal by intracardiac puncture following euthanasia with CO2 as outlined in the sample collection table below.
All blood samples were transferred into tubes containing K2EDTA anticoagulant and placed on wet ice immediately after collection until centrifuged at 2200 × g for 10 min at […] to isolate plasma.
The resulting plasma was transferred to individual polypropylene tubes in a 96‐well plate format and immediately placed on dry ice until storage at nominally […] before transfer to the Test Facility’s bioanalysis group for concentration and HPLC analysis. Individual blood collection times are […]
Table S4. Sample Collections.
Collection Information Whole Blood for Plasma Whole Blood for Plasma
Subgroup A (n = 3) 5 min & 1 h post‐dose 8 h post‐dose
Subgroup B (n = 3) 15 min & 4 h post‐dose 12 h post‐dose
Subgroup C (n = 3) 30 min & 6 h post‐dose 24 h post‐dose
Subgroup D (n = 2) Not applicable 2 h post‐dose
Subgroup A (n = 3) 15 min & 2 h post‐dose 8 h post‐dose
Subgroup B (n = 3) 30 min & 4 h post‐dose 12 h post‐dose
Subgroup C (n = 3) 1 hr & 6 h post‐dose 24 h post‐dose
Collection conditions K2EDTA K2EDTA
Collection route Submandibular Intracardiac puncture
Volume/Time point 100 μL Maximum volume
The plasma samples for Groups 1‐6, Subgroups A‐C were analyzed for test article concentration using a Research Grade LC MS/MS Assay (RGA‐Level 1). The bioanalytical report, including plasma […]
Pharmacokinetic parameters were estimated from the plasma concentration‐time data using standard non‐compartmental methods and utilizing suitable analysis software (Watson 7.2 Bioanalytical LIMS, Thermo Electron Corp). Parameters were estimated using nominal sampling times relative to the start of each dose administration (within an acceptable tolerance limit).
Concentrations below the limit of quantification were excluded from the pharmacokinetic analysis.
The area under the plasma test item concentration versus time curve (AUC) was calculated using the linear‐log‐linear trapezoidal method. When practical, the terminal elimination phase of each concentration versus time curve was identified using at least the final three observed concentration values. The slope of the terminal elimination phase was determined using log linear regression on the unweighted concentration data.
Parameter Description of Parameter […]

[2] = tested on: HCC-1806 (BL2); assay: MTT cell growth assay, 7 days; format: cell-based; details: Homo sapiens, HCC1806, 168 h
Method: (§1) Figure 3 In vitro characterization, pharmacokinetics and toxicity profile of VNLG-152R and its two enantiomers. (A) HPLC chromatograms racemic VNLG-152R (left panel) and the resolved enantiomers VNLG-152E1 and VNLG-152E2 (right panel). The conditions of HPLC procedure are presented in Supplementary Materials. (B) Table summarizing GI50 values (µM) each cell line treated with VNLG-152R and its enantiomers. TNBC cell subtypes were treated with listed compound (0.1 nmol/L–100 µmol/L) for 7 days and the GI50 values for the anti-proliferative effects of the compounds were determined from dose response curves (by a nonlinear regression analysis using Graph Pad Prism). Data represents the results from six independent experiments for each cell line. (C) Plasma concentration versus time profile after intravenous (IV, 2 mg/kg each, top panel) or oral (PO, 20 mg/kg each, bottom panel) of VNLG-152R (red), VNLG-152E1 (purple) and VNLG-152E2 (blue) to female CD1 mice. Values represent the mean plasma concentrations from three mice per time point. (D) Table of the pharmacokinetic parameters of various compounds after IV and PO dosing. AUC = area under the curve, T1/2 = elimination half-life, Cmax = maximum plasma concentration, F (%) = oral bioavailability. (E) Effects of VNLG-152R, VNLG-152E1 and VNLG-152E2 on body weight and clinical observations at chronic dose termination of study. Three different doses, i.e., 10, 25, and 50 mg/kg/day (formulated in 40% β-cyclodextrin in saline) of each compound were administered daily by oral gavage for 14 days. Each group consisted of three mice. Loss in body weight, a clinical sign of toxicity was observed during the 14 days of dosing and the maximum tolerated dose (MTD) was estimated following established procedures. Changes in body weight were scored on a scale of 0–4 as follows as described under methods. […]

[3] = tested on: MDA-MB-231 (MSL); assay: MTT cell growth assay, 7 days; format: cell-based; details: Homo sapiens, MDA-MB-231, 168 h
Method: as §1

[4] = tested on: MDA-MB-436 (MSL); assay: MTT cell growth assay, 7 days; format: cell-based; details: Homo sapiens, MDA-MB-436, 168 h
Method: as §1

[5] = tested on: MDA-MB-468 (BL1); assay: MTT cell growth assay, 7 days; format: cell-based; details: Homo sapiens, MDA-MB-468, 168 h
Method: as §1

With CC1=C(/C=C/C(C)=C/C=C/C(C)=C/C(=O)Nc2ccc(F)cc2)C(C)(C)CCC1n1ccnc1 (racemic) [VNLG-152R, 4-(±)-(1H-imidazol-1-yl)-N-(4-fluorophenyl)-(E)-retinamide] the bioavailability ([1]; PO 20 mg/kg vs IV 2 mg/kg, read-out: F (%) oral bioavailability) was 121%, the half-life ([1]; IV, 2 mg/kg) was 115 min and the AUC(0-inf) ([1]; IV, 2 mg/kg) was 1130 ng·h/mL. For the same compound, the half-life ([1]; PO, 20 mg/kg) was 555 min, the AUC(0-inf) ([1]; PO, 20 mg/kg) was 13700 ng·h/mL and the Cmax ([1]; PO, 20 mg/kg, read-out: Cmax) was 3750 ng/mL. The GI50 [2] was 810 ± 40 nM, the GI50 [3] was 620 ± 30 nM and the GI50 [4] was 890 ± 30 nM. It also gave a GI50 [5] of 890 ± 60 nM.
